Experimental data reported in US20090246134A1, “COMPOSITIONS AND METHODS FOR MODULATING GATED ION CHANNELS” (PainCeptor Pharma Corporation, priority 2007, published 2009).

Experiments:
[1] = system: CFA-induced change in weight bearing in Sprague-Dawley rats; assay: CFA model of chronic inflammatory pain, hindpaw weight bearing; assay type: in vivo, rat; conditions: 24 h after CFA; 60 min after drug; Compound A 5, 10, 20 mg/kg i.p.; Compound H 10, 30, 60 mg/kg; morphine 3, 6, 10 mg/kg; n=7-8
Protocol: Rats (body weight 260-300 g) were given a s.c. injection of CFA (50% in saline, 100 μl, Sigma) into the plantar surface of the hindpaw under brief halothane anaesthesia. After 24 h, they were then tested for hindpaw weight bearing responses, as assessed using an Incapacitance Tester (Linton Instrumentation, UK), (Zhu et al., 2005). The instrument incorporates a dual channel scale that separately measures the weight of the animal distributed to each hindpaw. While normal rats distribute their body weight equally between the two hindpaws (50-50), the discrepancy of weight distribution between an injured and non-injured paw is a natural reflection of the discomfort level in the injured paw (nocifensive behavior). The rats were placed in the plastic chamber designed so that each hindpaw rested on a separate transducer pad. […] For each rat, three readings from each paw were taken and then averaged. Side-to-side weight bearing difference was calculated as the average of the absolute value of the difference between two hindpaws from three trials (right paw reading-left paw reading).
Hindpaw weight bearing responses were measured in male Sprague-Dawley rats for 2-3 days prior to being given a hindpaw injection of CFA. Twenty-four hours later baseline responses were measured and rats were then administered Compound A (5, 10 and 20 mg/kg, i.p.), Compound H (10, 30 and 60 mg/kg) and morphine (3, 6 and 10 mg/kg). Weight bearing responses were then measured at 30, 60 and 120 min after drug or vehicle injection (data shown at 60 min.). […] All groups n=7-8.

[2] = system: formalin-induced pain in Sprague-Dawley rats; assay: Formalin model of acute tonic pain; assay type: in vivo, rat; conditions: rat, in vivo
Protocol: Male Sprague-Dawley rats are housed together in groups of three animals under standard conditions with unrestricted access to food and water. All experiments are conducted according to the ethical guidelines for investigations of experimental pain in conscious animals (Zimmerman, 1983)
Assessment of formalin-induced flinching behavior in normal, uninjured rats (body weight 150-180 g) was made with the use of an Automated Nociception Analyser (University of California, San Diego, USA). Briefly, this involved placing a small C-shaped metal band (10 mm wide×27 mm long) on the hindpaw of the rat to be tested. The rats (four rats were included in each testing session) were then placed in a cylindrical plexiglass observation chamber (diameter 30.5 cm and height 15 cm) for 20 min for adaptation purposes prior to being administered drug or vehicle according to the experimental paradigm being followed. After adaptation, individual rats were then gently restrained and formalin (5% in saline, 50 μl, s.c.) was injected into the plantar surface of the hindpaw using a 27 G needle. Rats were then returned to their separate observation chambers, each of which were in turn situated upon an enclosed detection device consisting of two electromagnetic coils designed to produce an electromagnetic field in which movement of the metal band could be detected. The analogue signal was then digitised and a software algorithm (LabView) applied to enable discrimination of flinching behaviour from other paw movements. A sampling interval of 1 min was used and on the basis of the resulting response patterns 5 phases of nociceptive behaviour were identified and scored: first phase (P1; 0-5 min), interphase (Int; 6-15 min), second phase (P2; […]), phase 2A (P2A; 16-40 min) and phase 2B (P2B; 41-60 min).
Nociceptive behavior was also determined manually every 5 min by measuring the amount of time spent in each of four behavioral categories: 0, treatment of the injected hindpaw is indistinguishable from that of the contralateral paw; 1, the injected paw has little or no weight placed on it; 2, the injected paw is elevated and is not in contact with any surface; 3, the injected paw is licked, bitten, or shaken. A weighted nociceptive score, ranging from 0 to 3 was calculated by multiplying the time spent in each category by the category weight, summing these products, and dividing by the total time for each 5 min block of time. (Coderre et al., Pain 1993; 54: 43). On the basis of the resulting response patterns, 2 phases of nociceptive behavior were identified and scored: first phase (P1; 0-5 min), interphase (Int; 6-15 min), second phase (P2; […]), phase 2A (P2A; 16-40 min) and phase 2B (P2B; 41-60 min).
Statistical analysis was performed using Prism™ 4.01 software package (GraphPad, San Diego, Calif., USA). The difference in response levels between treatment groups and control vehicle group was analyzed using an ANOVA followed by Bonferroni's method for post-hoc pair-wise comparisons. A p value<0.05 was considered to be significant
The effect of Compound A on pain induced by intraplantar formalin injection was investigated. Compound A was administered i.p. 30 min. before the formalin. Compound A was able to reduce the total pain score behavior (flinching, licking, biting) in phase 1 and 2 of the formalin test.

[3] = system: native sensory-neuron gated ion channels; assay: Patch-clamp electrophysiology of sensory neurons in primary culture; assay type: cell-based, rat; conditions: n=3
Description: This example describes another in vitro assessment of the inhibitory activity of the compounds of the present invention utilizing patch-clamp electrophysiology of sensory neurons in primary culture.
Sensory neurons can be isolated and cultured in vitro from different animal species. The most widely used protocols use sensory neurons isolated from neonatal (Eckert, et al. (1997) J Neurosci Methods 77:183-190) and embryonic (Vasko, et al. (1994) J Neurosci 14:4987-4997) rat. […] Electrophysiology is performed similarly as described above in Example 2. In the voltage-clamp mode, trans-membrane currents are recorded. Compounds A and H at 1 μM inhibit the pH 6.5-induced inward current. In the current-clamp mode, change in the trans-membrane potential are recorded. Under acidic conditions (e.g., pH 6.5) the membrane depolarizes, leading to the firing of action potentials. Compounds A and H at 1 μM inhibit the acid-induced membrane depolarization and reduce the ensuing rate of action potential firing.

CCN1CCc2c(-c3ccccc3)cc3c(c2C1)NC(=O)/C3=N/O [Compound H, 5-phenyl-6,7,8,9-tetrahydro-3-(hydroxyimino)-8-ethyl-1H-pyrrolo[3,2-h]isoquinoline-2(3H)-one]
CFA-induced change in weight bearing compared with vehicle [1]: marked dose-dependent attenuation | acute tonic pain induced by formalin injection in the paw [2]: block | acid-induced membrane depolarization ([3]; current-clamp mode, 1 μM): inhibit | rate of action potential firing ([3]; current-clamp mode, acidic conditions, 1 μM): reduce | activity of native sensory-neuron gated ion channels [3]: effectively modulate | pH 6.5-induced inward current ([3]; voltage-clamp mode, 1 μM): inhibit
